Test results from PubChem BioAssay (NCI).
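Following 48 hours of exposure in 96-well plates, responses at five concentrations were used to interpolate endpoints linearly. GI50 is the concentration that inhibits growth by half. TGI denotes the concentration required for complete inhibition of growth.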

Tests used:
Test in all cases: NCI anticancer screen, dose series, 48 h
[1] = test system: UACC-257 melanoma
[2] = test system: EKVX NSCLC
[3] = test system: A498 renal
[4] = test system: NCI-H460 lung
[5] = test system: OVCAR-8 ovarian
[6] = test system: LOX IMVI melanoma
[7] = test system: SK-MEL-5 melanoma
[8] = test system: HCT-116 colon
[9] = test system: SK-OV-3 ovarian
[10] = test system: UACC-62 melanoma
[11] = test system: MCF7 breast
[12] = test system: NCI-H226 lung
[13] = test system: A549 NSCLC
[14] = test system: PC-3 prostate
[15] = test system: HCT-15 colon
[16] = test system: ACHN renal
[17] = test system: OVCAR-5 ovarian
[18] = test system: NCI/ADR-RES ovarian
[19] = test system: BT-549 breast
[20] = test system: UO-31 renal
[21] = test system: RXF 393 renal
[22] = test system: SNB-75 CNS
[23] = test system: TK-10 renal
[24] = test system: M14 melanoma
[25] = test system: COLO 205 colon
[26] = test system: SNB-19 CNS
[27] = test system: SF-295 CNS
[28] = test system: NCI-H522 lung
[29] = test system: NCI-H23 lung
[30] = test system: DU-145 prostate
[31] = test system: 786-0 renal
[32] = test system: HOP-62 NSCLC
[33] = test system: MALME-3M melanoma
[34] = test system: K-562 leukemia
[35] = test system: IGROV1 ovarian
[36] = test system: HT29 colon
[37] = test system: SF-268 CNS
[38] = test system: SK-MEL-28 melanoma
[39] = test system: OVCAR-3 ovarian
[40] = test system: HCC-2998 colon
[41] = test system: CCRF-CEM leukemia
[42] = test system: OVCAR-4 ovarian
[43] = test system: T-47D breast
[44] = test system: KM12 colon
[45] = test system: SN12C renal
[46] = test system: MDA-MB-231 breast
[47] = test system: U251 CNS
[48] = test system: RPMI-8226 leukemia
[49] = test system: MOLT-4 leukemia
[50] = test system: MDA-MB-435
[51] = test system: HS 578T breast
[52] = test system: CAKI-1 renal
[53] = test system: SK-MEL-2 melanoma
[54] = test system: HOP-92 NSCLC
[55] = test system: SW-620 colon
[56] = test system: SF-539 CNS
[57] = test system: HL-60(TB) leukemia

CCN1C/C(=C\c2ccc(Cl)cc2)C2=NN(c3ccccc3)C(c3ccc(Cl)cc3)C2C1 (centres undefined)
TGI [1]: > 100 µM | TGI [2]: > 100 µM | TGI [3]: > 100 µM | TGI [4]: > 100 µM | TGI [5]: > 100 µM | TGI [6]: > 100 µM | TGI [7]: > 100 µM | TGI [8]: > 100 µM | TGI [9]: > 100 µM | TGI [10]: > 100 µM | TGI [11]: > 100 µM | TGI [12]: > 100 µM | TGI [13]: > 100 µM | TGI [14]: > 100 µM | TGI [15]: > 100 µM | TGI [16]: > 100 µM | TGI [17]: > 100 µM | TGI [18]: > 100 µM | TGI [19]: > 100 µM | TGI [20]: > 100 µM | TGI [21]: > 100 µM | TGI [22]: > 100 µM | TGI [23]: > 100 µM | TGI [24]: > 100 µM | TGI [25]: > 100 µM | TGI [26]: > 100 µM | TGI [27]: > 100 µM | TGI [28]: > 100 µM | TGI [29]: > 100 µM | TGI [30]: > 100 µM | TGI [31]: > 100 µM | TGI [32]: > 100 µM

O=C(/C=C/c1ccc([N+](=O)[O-])o1)NNC(=O)c1cc2ccccc2cc1O
GI50 [1]: 0.906 µM | TGI [1]: 3.92 µM | GI50 [2]: 7.2 µM | TGI [2]: > 100 µM | GI50 [3]: 2.11 µM | TGI [3]: 6.17 µM | GI50 [33]: 1.34 µM | TGI [33]: 4.91 µM | GI50 [4]: 2.82 µM | TGI [4]: > 100 µM | GI50 [5]: 1.11 µM | TGI [5]: 20.1 µM | GI50 [6]: 0.395 µM | TGI [6]: 1.98 µM | GI50 [7]: 0.656 µM | TGI [7]: 2.04 µM | GI50 [8]: 0.557 µM | TGI [8]: 1.72 µM | GI50 [34]: 1.41 µM | TGI [34]: > 100 µM | GI50 [9]: 4.23 µM | TGI [9]: > 100 µM | GI50 [10]: 0.694 µM | TGI [10]: 2.26 µM | GI50 [35]: 3.07 µM | TGI [35]: > 100 µM | GI50 [11]: 0.824 µM | TGI [11]: > 100 µM | GI50 [12]: 3.51 µM | TGI [12]: 34.1 µM | GI50 [36]: 2.88 µM | TGI [36]: > 100 µM | GI50 [13]: 3.95 µM | TGI [13]: > 100 µM | GI50 [37]: 1.29 µM | TGI [37]: > 100 µM | GI50 [38]: 0.596 µM | TGI [38]: 2.21 µM | GI50 [14]: 3.36 µM | TGI [14]: > 100 µM | GI50 [15]: 0.714 µM | TGI [15]: 2.91 µM | GI50 [39]: 0.967 µM | TGI [39]: > 21 µM | GI50 [16]: 0.688 µM | TGI [16]: 2.24 µM | GI50 [17]: 13 µM | TGI [17]: > 100 µM | GI50 [40]: 1.32 µM | TGI [40]: 3.21 µM | GI50 [18]: 1.48 µM | TGI [18]: 10.6 µM | GI50 [41]: 0.441 µM | TGI [41]: > 100 µM | GI50 [42]: 1.26 µM | TGI [42]: > 100 µM | GI50 [19]: 1.49 µM | TGI [19]: 5.74 µM | GI50 [20]: 1.2 µM | TGI [20]: 3.78 µM | GI50 [43]: 1.51 µM | TGI [43]: 5.77 µM | GI50 [21]: 0.236 µM | TGI [21]: 0.94 µM | GI50 [22]: 1.72 µM | TGI [22]: > 100 µM | GI50 [44]: 2.18 µM | TGI [44]: > 23 µM | GI50 [45]: 1.49 µM | TGI [45]: > 100 µM | GI50 [23]: 2.9 µM | TGI [23]: > 100 µM | GI50 [46]: 2.43 µM | TGI [46]: > 100 µM | GI50 [47]: 2.17 µM | TGI [47]: > 26.1 µM | GI50 [24]: 0.738 µM | TGI [24]: 2.29 µM | GI50 [48]: 2.3 µM | TGI [48]: > 100 µM | GI50 [25]: 1.92 µM | TGI [25]: 6.54 µM | GI50 [49]: 0.97 µM | TGI [49]: > 100 µM | GI50 [26]: 4.6 µM | TGI [26]: > 100 µM | GI50 [27]: 7.62 µM | TGI [27]: > 100 µM | GI50 [50]: 0.644 µM | GI50 [28]: 0.565 µM | TGI [28]: 2.03 µM | GI50 [51]: 6.21 µM | TGI [51]: > 100 µM | GI50 [29]: 1.05 µM | TGI [29]: 5.03 µM | GI50 [52]: 1.04 µM | GI50 [53]: 1.44 µM | TGI [53]: 3.97 µM | GI50 [54]: 2.75 µM | TGI [54]: > 100 µM | GI50 [55]: 2.03 µM | TGI [55]: > 89 µM | GI50 [30]: 0.998 µM | TGI [30]: 4.3 µM | GI50 [56]: 2.06 µM | TGI [56]: 7.52 µM | GI50 [31]: 1.54 µM | TGI [31]: 3.47 µM | GI50 [57]: 0.962 µM | TGI [57]: > 100 µM | GI50 [32]: 3.67 µM | TGI [32]: > 100 µM
